Laboratory results from patent publication US20190367516A1 (Bayer Pharma Aktiengesellschaft, priority 2015, published 2019).
pEC50: −log10 of the molar value.

Target: T1, human M2 receptor (Homo sapiens, UniProt P08172)
T1 sequence (P08172 1-466): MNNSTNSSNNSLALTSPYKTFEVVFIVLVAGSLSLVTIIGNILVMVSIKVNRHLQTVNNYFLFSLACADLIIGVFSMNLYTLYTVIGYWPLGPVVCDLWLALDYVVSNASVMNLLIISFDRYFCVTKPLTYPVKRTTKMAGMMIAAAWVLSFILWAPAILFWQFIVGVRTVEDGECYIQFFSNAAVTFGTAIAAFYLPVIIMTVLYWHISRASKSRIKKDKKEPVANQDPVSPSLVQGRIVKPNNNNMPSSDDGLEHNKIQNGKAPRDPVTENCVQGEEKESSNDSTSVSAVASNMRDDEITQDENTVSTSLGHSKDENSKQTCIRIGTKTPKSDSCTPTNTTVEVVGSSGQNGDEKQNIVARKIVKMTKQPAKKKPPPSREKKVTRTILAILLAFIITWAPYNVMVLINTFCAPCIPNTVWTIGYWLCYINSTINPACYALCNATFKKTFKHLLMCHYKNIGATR
Conditions: M2-GIRK1/4 reporter cells; for pEC50: Receptor activity EC50, allosteric potency at EC20 acetylcholine, in some cases mean of two or more determinations; for Emax: read-out: Efficiency, boosting of the acetylcholine effect at EC20 acetylcholine concentration

Row | Structure (SMILES) | pEC50 | Emax
1 | CC[C@H](NC(=O)c1cn(-c2c(F)cc(F)cc2Cl)c2nc(N3C[C@@H](O)[C@H](O)C3)ccc2c1=O)C(F)(F)F [Example 566, 1-(2-Chloro-4,6-difluorophenyl)-7-[(3R,4R)-3,4-dihydroxypyrrolidin-1-yl]-4-oxo-N-[(2S)-1,1,1-trifluorobutan-2-yl]-1,4-dihydro-1,8-naphthyridine-3-carboxamide] | 7.80 | 96.5%
2 | CC1C(=O)N(c2ccc3c(=O)c(C(=O)N[C@@H](C4CC4)C(F)(F)F)cn(-c4c(F)cc(F)cc4F)c3n2)CC1O (stereo partly shown) [Example 579, N-[(1 S)-1-Cyclopropyl-2,2,2-trifluoroethyl]-7-[4-hydroxy-3-methyl-2-oxopyrrolidin-1-yl]-4-oxo-1-(2,4,6-trifluorophenyl)-1,4-dihydro-1,8-naphthyridine-3-carboxamide] | 7.85 | 97.5%
3 | CC(C)C[C@@H](NC(=O)c1cn(-c2c(F)cc(F)cc2F)c2nc(N3CCNC3=O)ccc2c1=O)C(F)(F)F [Example 580, 4-Oxo-7-(2-oxoimidazolidin-1-yl)-N-[(2R)-1,1,1-trifluoro-4-methylpentan-2-yl)-1-(2,4,6-trifluorophenyl)-1,4-dihydro-1,8-naphthyridine-3-carboxamide] | 7.85 | 100%
4 | CC(NC(=O)c1cn(-c2c(F)cc(F)cc2F)c2nc(N3CCNC3=O)ccc2c1=O)(C(F)(F)F)C(F)(F)F [Example 581, N-(1,1,1,3,3,3-Hexafluoro-2-methylpropan-2-yl)-4-oxo-7-(2-oxoimidazolidin-1-yl)-1-(2,4,6-trifluorophenyl)-1,4-dihydro-1,8-naphthyridine-3-carboxamide] | 7.85 | 98%
5 | O=C(Nc1c(Cl)cccc1Cl)c1cn(-c2c(F)cc(F)cc2F)c2nc(N3C[C@@H](O)[C@H](O)C3)ccc2c1=O [Example 585, N-(2,6-Dichlorophenyl)-7-[(3R,4R)-3,4-dihydroxypyrrolidin-1-yl]-4-oxo-1-(2,4,6-trifluorophenyl)-1,4-dihydro-1,8-naphthyridine-3-carboxamide] | 7.85 | 95.5%
6 | CC(NC(=O)c1cn(-c2c(F)cc(F)cc2F)c2nc(N3C[C@@H](O)[C@H](O)C3)ccc2c1=O)(C(F)(F)F)C(F)(F)F [Example 591, 7-[(3R,4R)-3,4-Dihydroxypyrrolidin-1-yl]-N-(1,1,3,3,3-hexafluoro-2-methylpropan-2-yl)-4-oxo-1-(2,4,6-trifluorophenyl)-1,4-dihydro-1,8-naphthyridine-3-carboxamide] | 7.80 | 100%
7 | O=C(Nc1c(Cl)cccc1Cl)c1cn(-c2c(F)cc(F)cc2F)c2nc(N3C[C@@H](O)CC3=O)ccc2c1=O [Example 592, N-(2,6-Dichlorophenyl)-7-[(4S)-4-hydroxy-2-oxopyrrolidin-1-yl]-4-oxo-1-(2,4,6-trifluorophenyl)-1,4-dihydro-1,8-naphthyridine-3-carboxamide] | 7.80 | 99.5%
8 | COC(=O)N1CCN(c2ccc3c(=O)c(C(=O)N[C@H](C4CC4)C(F)(F)F)cn(-c4c(F)cc(F)cc4F)c3n2)CC1 [Example 594, Methyl 4-[6-{[(1R)-1-cyclopropyl-2,2,2-trifluoroethyl]carbamoyl}-5-oxo-8-(2,4,6-trifluorophenyl)-5,8-dihydro-1,8-naphthyridin-2-yl]piperazine-1-carboxylate] | 7.74 | 100%
9 | COC1(C)CN(c2ccc3c(=O)c(C(=O)N[C@@H](C(C)(C)C)C(F)(F)F)cn(-c4c(F)cc(F)cc4F)c3n2)C1 [Example 598, 7-(3-Methoxy-3-methylazetidin-1-yl)-4-oxo-N-[(2S)-1,1,1-trifluoro-3,3-dimethylbutan-2-yl]-1-(2,4,6-trifluorophenyl)-1,4-dihydro-1,8-naphthyridine-3-carboxamide] | 7.68 | 100%
10 | O=C(NC(C(F)(F)F)C(F)(F)F)c1cn(-c2c(F)cc(F)cc2F)c2nc(N3CCNC3=O)ccc2c1=O [Example 599, N-(1,1,1,3,3,3-Hexafluoropropan-2-yl)-4-oxo-7-(2-oxoimidazolidin-1-yl)-1-(2,4,6-trifluorophenyl)-1,4-dihydro-1,8-naphthyridine-3-carboxamide] | 7.64 | 90%
11 | COC(=O)N1CCN(c2ccc3c(=O)c(C(=O)N[C@@H](C4CC4)C(F)(F)F)cn(-c4c(F)cc(F)cc4F)c3n2)CC1 [Example 603, Methyl 4-[6-{[(1 S)-1-cyclopropyl-2,2,2-trifluoroethyl]carbamoyl}-5-oxo-8-(2,4,6-trifluorophenyl)-5,8-dihydro-1,8-naphthyridin-2-yl]piperazine-1-carboxylate] | 7.60 | 89.5%
12 | O=C(N[C@@H](C1CC1)C(F)(F)F)c1cn(-c2c(F)cc(F)cc2F)c2nc(N3CCCNC3=O)ccc2c1=O [Example 604, N-[(1S)-1-Cyclopropyl-2,2,2-trifluoroethyl]-4-oxo-7-(2-oxotetrahydropyrimidin-1(2H)-yl)-1-(2,4,6-trifluorophenyl)-1,4-dihydro-1,8-naphthyridine-3-carboxamide] | 7.60 | 93.5%

Compounds with a higher pEC50, results first:

Row | pEC50 | Emax | Structure (SMILES)
13 | 7.89 | 96% | COC(=O)N1CCN(c2ccc3c(=O)c(C(=O)NC(C)(C)CC(F)(F)F)cn(-c4c(F)cc(F)cc4F)c3n2)CC1 [Example 575, Methyl 4-{5-oxo-6-[(4,4,4-trifluoro-2-methylbutan-2-yl)carbamoyl]-8-(2,4,6-trifluorophenyl)-5,8-dihydro-1,8-naphthyridin-2-yl}piperazine-1-carboxylate]
14 | 7.92 | 100% | O=C(NC(C(F)(F)F)C(F)(F)F)c1cn(-c2c(F)cc(F)cc2F)c2nc(N3C[C@@H](O)[C@H](O)C3)ccc2c1=O [Example 572, 7-[(3R,4R)-3,4-Dihydroxypyrrolidin-1-yl]-N-(1,1,1,3,3,3-hexafluoropropan-2-yl)-4-oxo-1-(2,4,6-trifluorophenyl)-1,4-dihydro-1,8-naphthyridine-3-carboxamide]
15 | 8.00 | 100% | O=C(N[C@@H](C1CC1)C(F)(F)F)c1cn(-c2c(F)cc(F)cc2Cl)c2nc(N3C[C@@H](O)[C@H](O)C3)ccc2c1=O [Example 546, 1-(2-Chloro-4,6-difluorophenyl)-N-[(1 S)-1-cyclopropyl-2,2,2-trifluoroethyl]-7-[(3R,4R)-3,4-dihydroxypyrrolidin-1-yl]-4-oxo-1,4-dihydro-1,8-naphthyridine-3-carboxamide]
16 | 8.00 | 100% | O=C(NC(C(F)(F)F)C(F)(F)F)c1cn(-c2c(F)cc(F)cc2F)c2nc(N3C[C@@H](O)CC3=O)ccc2c1=O [Example 555, N-(1,1,1,3,3,3-Hexafluoropropan-2-yl)-7-[(4S)-4-hydroxy-2-oxopyrrolidin-1-yl]-4-oxo-1-(2,4,6-trifluorophenyl)-1,4-dihydro-1,8-naphthyridine-3-carboxamide]
17 | 8.00 | 99% | CC(C)C[C@H](NC(=O)c1cn(-c2c(F)cc(F)cc2F)c2nc(N3C[C@@H](O)[C@H](O)C3)ccc2c1=O)C(F)(F)F [Example 559, 7-[(3R,4R)-3,4-Dihydroxypyrrolidin-1-yl]-4-oxo-N-[(2S)-1,1,1-trifluoro-4-methylpentan-2-yl]-1-(2,4,6-trifluorophenyl)-1,4-dihydro-1,8-naphthyridine-3-carboxamide]
